Experimental data from patent US10227329B2, “Compounds useful for treating disorders related to RET” (BLUEPRINT MEDICINES CORPORATION, priority 2016, dated 2019).

Experiments:
[1] = target: wild type RET (Homo sapiens (Human), UniProt P07949); assay: RET Wild Type Assay at KM (Caliper electrophoretic mobility shift); type: biochemical; settings: 25 μM ATP (KM)
[2] = target: RET V804L (Homo sapiens (Human), UniProt P07949, V804L); assay: RET V804L Gatekeeper Mutant Assay at KM (Caliper electrophoretic mobility shift); type: biochemical; settings: 10 μM ATP (KM), read-out: V480L Mutant
Sequence of RET V804L (P07949 29-1114 V804L): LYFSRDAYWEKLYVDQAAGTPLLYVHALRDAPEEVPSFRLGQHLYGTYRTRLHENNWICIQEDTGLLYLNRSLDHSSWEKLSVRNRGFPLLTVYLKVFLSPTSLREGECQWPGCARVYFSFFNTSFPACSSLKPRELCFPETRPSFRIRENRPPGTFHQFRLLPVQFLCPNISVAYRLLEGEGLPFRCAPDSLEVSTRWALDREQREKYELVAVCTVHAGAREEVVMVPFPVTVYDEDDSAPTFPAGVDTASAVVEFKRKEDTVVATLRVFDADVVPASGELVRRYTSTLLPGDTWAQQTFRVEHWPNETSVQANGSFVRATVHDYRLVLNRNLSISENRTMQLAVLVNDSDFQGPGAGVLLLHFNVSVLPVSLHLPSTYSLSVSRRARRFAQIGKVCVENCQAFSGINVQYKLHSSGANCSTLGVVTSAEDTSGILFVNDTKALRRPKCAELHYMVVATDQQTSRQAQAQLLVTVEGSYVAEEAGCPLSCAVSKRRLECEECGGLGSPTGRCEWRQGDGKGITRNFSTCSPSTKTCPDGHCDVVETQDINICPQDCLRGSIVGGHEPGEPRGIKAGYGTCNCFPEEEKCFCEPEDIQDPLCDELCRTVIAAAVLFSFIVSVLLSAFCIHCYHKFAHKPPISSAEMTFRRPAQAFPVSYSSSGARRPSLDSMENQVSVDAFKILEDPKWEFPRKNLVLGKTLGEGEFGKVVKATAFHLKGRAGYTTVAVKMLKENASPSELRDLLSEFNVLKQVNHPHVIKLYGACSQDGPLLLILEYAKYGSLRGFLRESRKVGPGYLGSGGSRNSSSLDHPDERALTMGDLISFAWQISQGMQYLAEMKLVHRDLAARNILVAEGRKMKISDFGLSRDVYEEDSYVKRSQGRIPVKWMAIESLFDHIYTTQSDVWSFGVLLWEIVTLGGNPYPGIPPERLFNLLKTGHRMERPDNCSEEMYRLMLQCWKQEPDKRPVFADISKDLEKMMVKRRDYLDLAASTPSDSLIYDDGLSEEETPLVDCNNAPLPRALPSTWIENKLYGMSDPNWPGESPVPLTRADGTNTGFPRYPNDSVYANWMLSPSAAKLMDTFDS

Sequence of wild type RET (P07949 29-1114): as the sequence (P07949 29-1114 V804L) above, with L776V counted along it

IC50 [1] | IC50 [2] | Compound
< 10 nM | < 10 nM | COC1(C(=O)N[C@@H](C)c2ccc(-n3cc(F)cn3)nc2)CCN(c2nc(Nc3cc(C)[nH]n3)cc(C)c2C#N)CC1 [Compound 227]
< 10 nM | < 10 nM | COC1(C(=O)NCc2ccc(-n3cc(F)cn3)nc2)CCN(c2nc(C)cc(Nc3cc(C)[nH]n3)n2)CC1 [Compound 195]
> 100 nM | 10 to 100 nM | COc1ccc([C@H](C)NC(=O)C2(O)CCN(c3nc(C)cc(Nc4cc(C)[nH]n4)n3)CC2)cc1 [Compound 116]
< 10 nM | < 10 nM | COC1(C(=O)NCc2ccc(-n3cccn3)nc2)CN(c2cc(C(F)F)cc(Nc3cc(C)[nH]n3)n2)C1 [Compound 173]
< 10 nM | < 10 nM | Cc1cc(Nc2cc(C)[nH]n2)nc(N2CCC(C)(C(=O)N[C@@H](C)c3ccc(-n4cc(F)cn4)nc3)CC2)c1 [Compound 188]
< 10 nM | < 10 nM | Cc1cc(Nc2cc(C)[nH]n2)nc(N2CC(C(=O)N[C@@H](C)c3ccc(-n4cc(F)cn4)nc3)C2)c1 [Compound 119]
10 to 100 nM | 10 to 100 nM | COc1ccc([C@H](C)NC(=O)C2(OC)CCN(c3nc(C)cc(Nc4cc(C)[nH]n4)n3)CC2)cc1 [Compound 123]
< 10 nM | < 10 nM | COC1(C(=O)NCc2ccc(-n3nc(C)cc3C)nc2)CCN(c2nc(C)cc(Nc3cc(C)[nH]n3)n2)CC1 [Compound 215]
< 10 nM | < 10 nM | Cc1cc(Nc2cc(C(F)F)cc(N3CC(F)(C(=O)NCc4ccc(-n5cc(F)cn5)nc4)C3)n2)n[nH]1 [Compound 180]
< 10 nM | < 10 nM | Cc1cc(Nc2cc(C3CC3)[nH]n2)nc(N2CCC(C)(C(=O)N[C@@H](C)c3ccc(-n4cc(F)cn4)nc3)CC2)c1 [Compound 225]
< 10 nM | < 10 nM | COC1(C(=O)N[C@@H](C)c2ccc(-n3cccn3)nc2)CCN(c2nc(Nc3cc(C)[nH]n3)cc(C)c2C#N)CC1 [Compound 222]
< 10 nM | < 10 nM | Cc1cc(Nc2cc(C)[nH]n2)nc(N2CC(C)(C(=O)NCc3ccc(-n4cccn4)nc3)C2)c1 [Compound 107, N-((6-(1H-pyrazol-1-yl)pyridin-3-yl)methyl)-3-methyl-1-(4-methyl-6-((5-methyl-1H-pyrazol-3-yl)amino)pyridin-2-yl)azetidine-3-carboxamide]
10 to 100 nM | 10 to 100 nM | COC1(C(=O)N[C@@H]2CCN(c3ccccn3)C2)CCN(c2nc(C)cc(Nc3cc(C)[nH]n3)n2)CC1 [Compound 147]
< 10 nM | < 10 nM | Cc1cc(Nc2cc(C)[nH]n2)nc(N2CCC(F)(C(=O)NCc3ccc(-n4cccn4)nc3)CC2)n1 [Compound 141]
< 10 nM | < 10 nM | Cc1cc(Nc2cc(C)[nH]n2)nc(N2CCC(O)(C(=O)NCc3ccc(-n4cccn4)nc3)CC2)n1 [Compound 136, N-((6-(1H-pyrazol-1-yl)pyridin-3-yl)methyl)-4-hydroxy-1-(4-methyl-6-(3-methyl-1H-pyrazol-5-ylamino)pyrimidin-2-yl)piperidine-4-carboxamide]
< 10 nM | < 10 nM | CCC1(C(=O)N[C@@H](C)c2ccc(-n3cc(F)cn3)nc2)CN(c2nc(C)cc(Nc3cc(C)[nH]n3)n2)C1 [Compound 166, (S)-3-ethyl-N-(1-(6-(4-fluoro-1H-pyrazol-1-yl)pyridin-3-yl)ethyl)-1-(4-methyl-6-((5-methyl-1H-pyrazol-3-yl)amino)pyrimidin-2-yl)azetidine-3-carboxamide]
10 to 100 nM | < 10 nM | COC1(C(=O)NCc2ccc(-n3cc(C)cn3)nc2)CN(c2nc(C)cc(Nc3cc(C)[nH]n3)n2)C1 [Compound 138]
< 10 nM | < 10 nM | CCOC1(C(=O)N[C@@H](C)c2ccc(-n3cc(F)cn3)nc2)CN(c2cc(C)cc(Nc3cc(C)[nH]n3)n2)C1 [Compound 194, (S)-3-ethoxy-N-(1-(6-(4-fluoro-1H-pyrazol-1-yl)pyridin-3-yl)ethyl)-1-(4-methyl-6-((5-methyl-1H-pyrazol-3-yl)amino)pyridin-2-yl)azetidine-3-carboxamide]
< 10 nM | < 10 nM | Cc1cc(Nc2cc(C)[nH]n2)nc(N2CCC(OCC(F)(F)F)(C(=O)NCc3ccc(-n4cccn4)nc3)CC2)n1 [Compound 228]
< 10 nM | < 10 nM | Cc1cc(Nc2cc(C)[nH]n2)nc(N2CC(F)(C(=O)N[C@@H](C)c3ccc(-n4cccn4)nc3)C2)n1 [Compound 122]
< 10 nM | < 10 nM | Cc1cc(Nc2cc(C)[nH]n2)nc(N2CC(C(=O)N(C)[C@@H](C)c3ccc(-n4cc(F)cn4)nc3)C2)n1 [Compound 142]
< 10 nM | < 10 nM | Cc1cc(Nc2cc(C)[nH]n2)nc(N2CC(C(=O)N(C)[C@@H](C)c3ccc(-n4cc(F)cn4)nc3)C2)c1 [Compound 140]
> 100 nM | 10 to 100 nM | COC1(C(=O)NCc2ccccc2)CCN(c2nc(C)cc(Nc3cc(C)[nH]n3)n2)CC1 [Compound 104]
< 10 nM | < 10 nM | Cc1cc(N2CCC(CC#N)(C(=O)N[C@@H](C)c3ccc(-n4cc(F)cn4)nc3)CC2)nc(Nc2cc(C)[nH]n2)n1 [Compound 224]
< 10 nM | < 10 nM | COC1(C(=O)N[C@@H](C)c2ccc(-n3cc(F)cn3)nc2)CN(c2nc(Nc3cc(C)[nH]n3)cc(C)c2F)C1 [Compound 202]

IC50 [1] | IC50 [2] | Compound
< 10 nM | < 10 nM | COC1(C(=O)NCc2ccc(-n3cc(Cl)cn3)nc2)CN(c2nc(C)cc(Nc3cc(C)[nH]n3)n2)C1 [Compound 172]
> 100 nM | 10 to 100 nM | COc1ccc(CNC(=O)C2(O)CCN(c3nc(C)cc(Nc4cc(C)[nH]n4)n3)CC2)cc1 [Compound 106]
10 to 100 nM | 10 to 100 nM | COC1(C(=O)NCc2ccc(-n3cc(F)cn3)nn2)CN(c2nc(C)cc(Nc3cc(C)[nH]n3)n2)C1 [Compound 150]
< 10 nM | < 10 nM | CCOC1(C(=O)N[C@@H](C)c2ccc(-n3cc(F)cn3)nc2)CN(c2nc(C)cc(Nc3cc(C)[nH]n3)n2)C1 [Compound 197]
< 10 nM | < 10 nM | Cc1cc(Nc2cc(C)[nH]n2)nc(N2CC(F)(C(=O)NCc3ccc(-n4cccn4)nc3)C2)c1 [Compound 111]
< 10 nM | < 10 nM | Cc1cc(Nc2cc(C(F)F)cc(N3CC(F)(C(=O)NCc4cnc(-n5cc(F)cn5)cn4)C3)n2)n[nH]1 [Compound 183]
< 10 nM | < 10 nM | Cc1cc(Nc2cc(C)[nH]n2)nc(N2CC[C@@H](C(=O)NCc3ccc(-n4cccn4)nc3)[C@H](O)C2)c1 [Compound 133]
< 10 nM | < 10 nM | COC1(C(=O)N(C)Cc2ccc(-n3cccn3)nc2)CCN(c2nc(C)cc(Nc3cc(C)[nH]n3)n2)CC1 [Compound 185]
< 10 nM | < 10 nM | Cc1cc(Nc2cc(C)[nH]n2)nc(N2CC(C(=O)N[C@@H](C)c3ccc(-n4cc(F)cn4)nc3)C2)n1 [Compound 121]
< 10 nM | < 10 nM | COC1(C(=O)N[C@@H](C)c2ccc(-n3cc(F)cn3)nc2)CN(c2nc(Nc3cc(C)[nH]n3)cc(C)c2C#N)C1 [Compound 212]
< 10 nM | < 10 nM | Cc1cc(Nc2cc(C)[nH]n2)nc(N2CCC(O)(C(=O)NCc3ccc(-n4cccn4)nc3)CC2)c1 [Compound 131]
< 10 nM | < 10 nM | Cc1cc(Nc2cc(C)[nH]n2)nc(N2CCC(C)(C(=O)NCc3ccc(-n4cccn4)nc3)CC2)c1 [Compound 127]
< 10 nM | < 10 nM | Cc1cc(Nc2cc(C)[nH]n2)nc(N2C[C@@H](C(=O)N[C@@H](C)c3ccc(-n4cc(F)cn4)nc3)[C@@H]2C)n1 [Compound 143]
< 10 nM | < 10 nM | CO[C@@]1(C(=O)N[C@@H](C)c2ccc(-n3cc(F)cn3)nc2)CN(c2nc(C)cc(Nc3cc(C)[nH]n3)n2)[C@@H]1C [Compound 198]
< 10 nM | < 10 nM | Cc1cc(Nc2cc(C)[nH]n2)nc(N2CCC(CO)(C(=O)N[C@@H](C)c3ccc(-n4cc(F)cn4)nc3)CC2)c1 [Compound 217]
< 10 nM | < 10 nM | Cc1cc(Nc2cc(C)[nH]n2)nc(N2CC(O)(C(=O)N[C@@H](C)c3ccc(-n4cc(F)cn4)nc3)C2)c1 [Compound 145]
< 10 nM | < 10 nM | Cc1cc(Nc2cc(C)[nH]n2)nc(N2CCC(O)(C(=O)NCc3ccc(-n4nc(C)cc4C)nc3)CC2)c1 [Compound 182]
< 10 nM | < 10 nM | COC1(C(=O)NCc2ccc(-n3cc(F)cn3)nc2)CN(c2nc(C)cc(Nc3cc(C)[nH]n3)n2)C1 [Compound 148]
< 10 nM | < 10 nM | COC1(C(=O)NCc2ccc(-n3cccn3)nc2)CN(c2nc(Nc3cc(C)[nH]n3)cc(C)c2C#N)C1 [Compound 156]
< 10 nM | < 10 nM | COC1(C(=O)NCc2ccc(-n3nc(C)cc3C)nc2)CCN(c2cc(C)cc(Nc3cc(C)[nH]n3)n2)CC1 [Compound 211]
< 10 nM | < 10 nM | Cc1cc(Nc2cc(C)[nH]n2)nc(N2CC[C@@H](C(=O)NCc3ccc(-n4cccn4)nc3)[C@@H](O)C2)c1 [Compound 134]
< 10 nM | < 10 nM | Cc1cc(Nc2cc(C)[nH]n2)nc(N2CCC(C)(C(=O)NCc3ccc(-n4cccn4)nc3)CC2)n1 [Compound 129]
< 10 nM | < 10 nM | COC1(C(=O)NCc2ccc(-n3cccn3)nc2)CCN(c2nc(Nc3cc(C)[nH]n3)cc(C)c2C#N)CC1 [Compound 207]
< 10 nM | < 10 nM | Cc1cc(Nc2cc(C)[nH]n2)nc(N2CCC(F)(C(=O)N[C@@H](C)c3ccc(-n4cc(F)cn4)nc3)CC2)c1 [Compound 200]
< 10 nM | < 10 nM | Cc1cc(Nc2cc(C(F)F)cc(N3CC(F)(C(=O)N[C@@H](C)c4ccc(-n5cc(F)cn5)nc4)C3)n2)n[nH]1 [Compound 210]
